{"source": "paper PMC9076486", "about": "(RSC Advances, 2019)", "origin": "cited, not measured here", "system": "superoxide anions", "details": "pH 7.4; for IC50: read-out: IC50 (SOD activity)", "data": [{"molecule": "[Cu+2].[O-][Cl+3]([O-])([O-])[O-].[O-][Cl+3]([O-])([O-])[O-]", "note": "[Cu(ClO4)2, copper(II) perchlorate]", "values": [{"measurement": "k cat (SOD activity)", "result": "2.7 10^6 M^−1 s^−1"}, {"measurement": "IC50", "result": 1100, "unit": "nM"}]}, {"molecule": "CuZn–SOD: native copper–zinc superoxide dismutase enzyme, value from ref. 42", "values": [{"measurement": "k cat (SOD activity)", "result": "430 10^6 M^−1 s^−1"}, {"measurement": "IC50", "result": 10, "unit": "nM"}]}]}
